What follows are compounds tested against T1, EED (Homo sapiens, UniProt O75530) (assay: EED Proteolytic Activity Evaluation 2 (western blot, Hela cells)). Conditions: 1 nM, 10 nM, 100 nM and 1000 nM, 20 hours of treatment.
T1 construct: 2×10^5 Hela cells were injected into a 12-well plate; endogenous in cells; host or cells: HeLa
Assay type: cell-based
Description: [Experiment 2] EED Proteolytic Activity Evaluation 2
In order to evaluate the EED proteolytic activity of the compound according to the present invention, an experiment was conducted as follows.
Specifically, 2×10^5 Hela cells were injected into a 12-well plate, and after 8 hours of stabilization, each well was treated with the example compounds to have final concentrations of 1 nM, 10 nM, 100 nM, and 1000 nM. One well was treated with the volume of DMSO contained in the sample corresponding to the highest concentration in the experimental group. After 20 hours of treatment, the cells were collected and lysed using 80 μl of SDS Lysis buffer (50 mM Tris pH8.0, 1% SDS, 1 mM EDTA, 0.5 mM PMSF, and protease inhibitor cocktail) and then sonication (30 sec on/59 sec off), 5 cycles) to prepare a cell lysate, followed by protein quantification through BCA, followed by Western blot, and the results are shown in Table 3. (Maximum EED degradation rate: A: >50%, B: 25-50%, C: <25%)

T1 sequence (O75530 whole entry): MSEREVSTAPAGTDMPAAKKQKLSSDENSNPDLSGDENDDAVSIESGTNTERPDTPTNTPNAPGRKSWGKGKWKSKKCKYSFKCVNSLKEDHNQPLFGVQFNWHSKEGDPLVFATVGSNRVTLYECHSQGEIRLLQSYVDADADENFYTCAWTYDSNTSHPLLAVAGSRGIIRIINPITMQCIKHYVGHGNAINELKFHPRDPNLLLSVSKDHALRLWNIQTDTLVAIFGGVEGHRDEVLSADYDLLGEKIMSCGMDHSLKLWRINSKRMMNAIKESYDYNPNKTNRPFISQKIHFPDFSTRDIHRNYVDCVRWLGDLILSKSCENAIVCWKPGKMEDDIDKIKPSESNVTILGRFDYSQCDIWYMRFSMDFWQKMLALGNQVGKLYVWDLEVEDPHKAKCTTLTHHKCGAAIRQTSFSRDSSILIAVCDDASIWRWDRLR

| SMILES | EED degradation rate (Maximum EED degradation rate) |
| --- | --- |
| Cc1cccc(F)c1CN1C[C@H](c2ccc(N3CCN(C(=O)CCC4CCN(c5cccc6c5C(=O)N(C5CCC(=O)NC5=O)C6=O)CC4)CC3)cc2)[C@@H](N(C)C)C1 (stereo partly drawn) [Example 141, 4-(4-(3-(4-(4-((3S,4R)-4-(dimethylamino)-1-(2-fluoro-6-methylbenzyl)pyrrolidin-3-yl)phenyl)piperazin-1-yl)-3-oxopropyl)piperidin-1-yl)-2-(2,6-dioxopiperidin-3-yl)isoindolin-1,3-dione] | B (B: 25-50%) |
| O=C1CCC(n2nnc3ccc(NCC(=O)N4CCC(CN5CCC(n6cc(-c7cnc(NCc8ccco8)n8cnnc78)cn6)CC5)CC4)cc3c2=O)C(=O)N1 (stereo not shown) [Example 128, 3-(6-((2-(4-((4-(4-(5-((furan-2-ylmethyl)amino)-[1,2,4]triazolo[4,3-c]pyrimidin-8-yl)-1H-pyrazol-1-yl)piperidin-1-yl)methyl)piperidin-1-yl)-2-oxoethyl)amino)-4-oxobenzo[d][1,2,3]triazin-3 (4H)-yl)piperidin-2,6-dione] | C (C: <25%) |
| Cc1cccc(F)c1CN1C[C@H](c2ccc(N3CCN(CC4CCN(c5cccc6c5C(=O)N(C5CCC(=O)NC5=O)C6=O)CC4)CC3)cc2)[C@@H](N(C)C)C1 (stereo partly drawn) [Example 139, 4-(4-((4-(4-((3S,4R)-4-(dimethylamino)-1-(2-fluoro-6-methylbenzyl)pyrrolidin-3-yl)phenyl)piperazin-1-yl)methyl)piperidin-1-yl)-2-(2,6-dioxopiperidin-3-yl)isoindolin-1,3-dione] | C (C: <25%) |
| Cc1cccc(F)c1CN1C[C@H](c2ccc(N3CCN(CC4CCN(CC5CCN(c6ccc7c(c6)C(=O)N(C6CCC(=O)NC6=O)C7=O)CC5)CC4)CC3)cc2)[C@@H](N(C)C)C1 (stereo partly drawn) [Example 134, 5-(4-((4-((4-(4-((3S,4R)-4-(dimethylamino)-1-(2-fluoro-6-methylbenzyl)pyrrolidin-3-yl)phenyl)piperazin-1-yl)methyl)piperidin-1-yl)methyl)piperidin-1-yl)-2-(2,6-dioxopiperidin-3-yl)isoindolin-1,3-dione] | B (B: 25-50%) |
| Cc1cccc(F)c1CN1C[C@H](c2ccc(N3CCN(C(=O)CC4CCN(C(=O)COc5cccc6c5C(=O)N(C5CCC(=O)NC5=O)C6=O)CC4)CC3)cc2)[C@@H](N(C)C)C1 (stereo partly drawn) [Example 143, 4-(2-(4-(2-(4-(4-((3S,4R)-4-(dimethylamino)-1-(2-fluoro-6-methylbenzyl)pyrrolidin-3-yl)phenyl)piperazin-1-yl)-2-oxoethyl)piperidin-1-yl)-2-oxoethoxy)-2-(2,6-dioxopiperidin-3-yl)isoindolin-1,3-dione] | A (A: >50%) |
| Cc1cccc(F)c1CN1C[C@H](c2ccc(N3CCN(C(=O)CC4CCN(C(=O)CNc5cccc6c5C(=O)N(C5CCC(=O)NC5=O)C6=O)CC4)CC3)cc2)[C@@H](N(C)C)C1 (stereo partly drawn) [Example 144, 4-((2-(4-(2-(4-(4-((3S,4R)-4-(dimethylamino)-1-(2-fluoro-6-methylbenzyl)pyrrolidin-3-yl)phenyl)piperazin-1-yl)-2-oxoethyl)piperidin-1-yl)-2-oxoethyl)amino)-2-(2,6-dioxopiperidin-3-yl)isoindolin-1,3-dione] | A (A: >50%) |
| Cc1cccc(F)c1CN1C[C@H](c2ccc(N3CCN(C(=O)CCCCCCCNc4cccc5c4C(=O)N(C4CCC(=O)NC4=O)C5=O)CC3)cc2)[C@@H](N(C)C)C1 (stereo partly drawn) [Example 125, 4-((8-(4-(4-((3S,4R)-4-(dimethylamino)-1-(2-fluoro-6-methylbenzyl)pyrrolidin-3-yl)phenyl)piperazin-1-yl)-8-oxooctyl)amino)-2-(2,6-dioxopiperidin-3-yl)isoindolin-1,3-dione] | A (A: >50%) |
| Cc1cccc(F)c1CN1C[C@H](c2ccc(N3CCN(C(=O)CC4CCN(C(=O)COc5ccc6c(c5)C(=O)N(C5CCC(=O)NC5=O)C6=O)CC4)CC3)cc2)[C@@H](N(C)C)C1 (stereo partly drawn) [Example 145, 5-(2-(4-(2-(4-(4-((3S,4R)-4-(dimethylamino)-1-(2-fluoro-6-methylbenzyl)pyrrolidin-3-yl)phenyl)piperazin-1-yl)-2-oxoethyl)piperidin-1-yl)-2-oxoethoxy)-2-(2,6-dioxopiperidin-3-yl)isoindolin-1,3-dione] | B (B: 25-50%) |
| Cc1cccc(F)c1CN1C[C@H](c2ccc(N3CCN(CC4CCN(c5ccc6c(c5)C(=O)N(C5CCC(=O)NC5=O)C6=O)CC4)CC3)cc2)[C@@H](N(C)C)C1 (stereo partly drawn) [Example 131, 5-(4-((4-(4-((3S,4R)-4-(dimethylamino)-1-(2-fluoro-6-methylbenzyl)pyrrolidin-3-yl)phenyl)piperazin-1-yl)methyl)piperidin-1-yl)-2-(2,6-dioxopiperidin-3-yl)isoindolin-1,3-dione] | A (A: >50%) |

Second part, the compound after the results:

| EED degradation rate (Maximum EED degradation rate) | SMILES |
| --- | --- |
| A (A: >50%) | Cc1cccc(F)c1CN1C[C@H](c2ccc(N3CCN(CCC4CCN(C(=O)COc5cccc6c5C(=O)N(C5CCC(=O)NC5=O)C6=O)CC4)CC3)cc2)[C@@H](N(C)C)C1 (stereo partly drawn) [Example 151, 4-(2-(4-(2-(4-(4-((3S,4R)-4-(dimethylamino)-1-(2-fluoro-6-methylbenzyl)pyrrolidin-3-yl)phenyl)piperazin-1-yl)ethyl)piperidin-1-yl)-2-oxoethoxy)-2-(2,6-dioxopiperidin-3-yl)isoindolin-1,3-dione] |
| B (B: 25-50%) | Cc1cccc(F)c1CN1C[C@H](c2ccc(N3CCN(C(=O)CCC4CCN(C(=O)CNc5cccc6c5C(=O)N(C5CCC(=O)NC5=O)C6=O)CC4)CC3)cc2)[C@@H](N(C)C)C1 (stereo partly drawn) [Example 149, 4-((2-(4-(3-(4-(4-((3S,4R)-4-(dimethylamino)-1-(2-fluoro-6-methylbenzyl)pyrrolidin-3-yl)phenyl)piperazin-1-yl)-3-oxopropyl)piperidin-1-yl)-2-oxoethyl)amino)-2-(2,6-dioxopiperidin-3-yl)isoindolin-1,3-dione] |
| A (A: >50%) | Cc1cccc(F)c1CN1C[C@H](c2ccc(N3CCN(CCC4CCN(c5ccc6c(c5)C(=O)N(C5CCC(=O)NC5=O)C6=O)CC4)CC3)cc2)[C@@H](N(C)C)C1 (stereo partly drawn) [Example 154, 5-(4-(2-(4-(4-((3S,4R)-4-(dimethylamino)-1-(2-fluoro-6-methylbenzyl)pyrrolidin-3-yl)phenyl)piperazin-1-yl)ethyl)piperidin-1-yl)-2-(2,6-dioxopiperidin-3-yl)isoindolin-1,3-dione] |
| B (B: 25-50%) | Cc1cccc(F)c1CN1C[C@H](c2ccc(N3CCN(C(=O)CCC4CCN(C(=O)COc5ccc6c(c5)C(=O)N(C5CCC(=O)NC5=O)C6=O)CC4)CC3)cc2)[C@@H](N(C)C)C1 (stereo partly drawn) [Example 147, 5-(2-(4-(3-(4-(4-((3S,4R)-4-(dimethylamino)-1-(2-fluoro-6-methylbenzyl)pyrrolidin-3-yl)phenyl)piperazin-1-yl)-3-oxopropyl)piperidin-1-yl)-2-oxoethoxy)-2-(2,6-dioxopiperidin-3-yl)isoindolin-1,3-dione] |

Source: patent US20220105188A1, “TARGET PROTEIN EED DEGRADATION-INDUCING DEGRADUCER, PREPARATION METHOD THEREOF, AND PHARMACEUTICAL COMPOSITION FOR PREVENTING OR TREATING DISEASES RELATED TO EED, EZH2, OR PRC2, COMPRISING SAME AS ACTIVE INGREDIENT” (KOREA RESEARCH INSTITUTE OF CHEMICAL TECHNOLOGY, priority 2019, published 2022)
